{"source": "patent US7858612B2", "about": "“Therapeutic agent for inflammatory bowel diseases” (Meiji Seika Kaisha, Ltd., priority 2007, dated 2010)", "key": {"[1]": {"assay": "Test for converting Compound A into Compound B (oral 14C Compound A, Radio-HPLC)", "format": "in vivo, Wistar rats", "procedure": "Male 8 week-old Wistar rats (purchased from Japan SLC, Inc.) under fasting conditions were orally administered with ^14C labeled Compound A at a dose of 1 mg/kg, and the amounts of Compound B in plasma, urine and bile were determined by Radio-HPLC."}, "TNBS induced IBD model [2]": {"tested_on": "TNBS induced IBD model", "assay": "Trinitrobenzene sulfonic acid (TNBS) induced rat IBD model (therapeutic effect)", "format": "in vivo, SD rats", "settings": "5 mg/kg × 2 oral, from 2 days after TNBS"}, "[3]": {"settings": "cited from earlier work"}, "[4]": {"tested_on": "carrageenin induced paw edema in rats", "assay": "Carrageenin induced paw edema in rats", "format": "in vivo, Wistar rats", "settings": "for Volume of edema: 3 h after carrageenin, mean ± SE", "procedure": "To right hind paws of male 7 week-old Wistar rats (purchased from Japan SLC, Inc.) 0.1 ml of 1% λ-carrageenin was subcutaneously injected to cause paw edema reaction (n=5). Compound A at doses of 1 to 25 mg/kg and indomethacin at a dose of 5 mg/kg were orally administered 15 and 60 minutes before administration of carrageenin, respectively.\nThree hours after administration of carrageenin, when the paw edema reaction reached maximum, the effectiveness was evaluated from the volumes of the right hind paw edema."}, "in vivo": {"assay": "in vivo", "parameters": "species or system SD rats", "settings": "both sexes, SD, rat, po", "procedure": "To 6 week-old male and female SD rats (purchased from\nCharles River Laboratories Japan, Inc.) a solvent (hydroxymethyl cellulose) or Compound A (100, 300, 1000 mg/kg/day) was administered orally and repeatedly for 26 consecutive weeks (n=15)."}, "[5]": {"tested_on": "DSS induced rat IBD chronic model", "assay": "DSS induced rat IBD chronic model (therapeutic effect)", "format": "in vivo, Wistar rats", "procedure": "Colitis was induced by freely allowing male 7 week-old Wistar rats (purchased from Japan SLC, Inc.) to ingest 3% DSS solution for 3 days, and subsequently chronic IBD was induced by freely allowing to ingest 1% DSS solution starting from the 4th day of the test.\nCompound A (2, 20 mg/kg/day), 5-aminosalicylic acid as a control (5-ASA: 200 mg/kg/day) and cyclosporine A (Cy A: 25 mg/kg/day) were administered to the animals starting from the 4th day of the test until the day of dissection (n=8 to 20).\nThe property of feces in individual animal was observed until the day before dissection, and the soft feces score and the blood feces score were determined according to the same basis as shown in Test Example 3 to obtain the sum of the soft feces score and blood feces score as the feces score.\nAlso, 1% Evans blue physiological saline was intravenously injected in an amount of 1 ml per rat on the day of dissection, and the animal was euthanized 30 minutes after that for excising the large intestine. After immobilizing the large intestine in the length of 7 to 8 cm from anus with 4% formalin buffer for 20 minutes, the intestine was longitudinally opened from the mesenterium side for photographing the rectal portion and measuring the rectum weight. The state and extent of eroded rectal portion were scored according to the following basis for making a macro observation score.\nMacro observation score (0-5)\n[0: normal, • 1: erosion formation in narrow ranges, • 2: weak erosion formation, without bleeding, • 3: moderate erosion formation and weak bleeding in narrow ranges, • 4: strong erosion formation and bleeding in narrow ranges, • 5: strong erosion formation and bleeding in wide ranges]\nA therapeutic effect of Compound B orally administered was examined in the same manner as in Test Example 4 except that Compound B (20 mg/kg/day) was used in place of Compound A (n=12)."}, "TNBS induced IBD model [6]": {"tested_on": "TNBS induced IBD model", "assay": "Trinitrobenzene sulfonic acid (TNBS) induced rat IBD model (therapeutic effect)", "format": "in vivo, SD rats", "procedure": "8 week-old male SD rats (purchased from Charles River\nLaboratories Japan, Inc.) were intrarectally treated with TNBS to induce enteritis, and divided into groups 2 days after the treatment with TNBS to initiate the administration of the drugs. A solvent, Compound A (2, 20, 50 mg/kg/day), or prednisolone (6 mg/kg/day) was orally administered twice a day, and the rats were subjected to autopsy 8 days after administration for determining the macro observation score. The evaluation of the score was conducted by the method described in Table 4 according to the judgment method by JOHN L. WALLACE et al. (Gastroenterology 1989; 96: 29-36).\nFurthermore, the large intestine was cut to a length of 10 cm for measuring the wet weight of intestine."}, "DSS induced IBD model": {"tested_on": "DSS induced IBD model", "assay": "3% dextran sulfate sodium (DSS) induced acute rat IBD model (prophylactic effect)", "format": "in vivo, Wistar rats", "settings": "10 mg/kg/day oral; for inhibition at 10 mg/kg/day: Rattus norvegicus, po, read-out: Inhibition rate (%)", "from_the_text": "IBD was induced by freely allowing male 7 week-old Wistar rats (purchased from Japan SLC, Inc.) to ingest 3% DSS solution (n=8). In the period of 7 days after initiating DSS administration, soft feces and blood feces scores were observed according to the following basis, and the sum of the soft feces score and blood feces score was obtained as the feces score of the individual animal.\n• Soft feces score (0 to 3) • [0: nothing abnormal detected (NAD), • 1: slightly soft, • 2: soft, • 3: diarrhea] • Blood feces score (0 to 3) • [0: nothing abnormal detected (NAD), • 1: blood in feces, • 2: bright-red blood adhered on feces, • 3: melena]\n1% Evans blue physiological saline was intravenously injected in an amount of 1 ml per rat 8 days after DSS exposure, and the animal was euthanized 30 minutes after that for excising the large intestine. After immobilizing the large intestine in the length of 7 to 8 cm from anus with 4% formalin buffer for 20 minutes, the intestine was longitudinally opened from the mesenterium side for photographing the rectal portion. Ulcer area was calculated by image analysis.\nCompound A (10 mg/kg/day), or. sulfasalazine (100 mg/kg/day) or prednisolone (1 mg/kg/day) as a control compound was made into suspension in an agate mortar, which was orally administered twice a day at a dose of 5 ml/kg to each rat starting from a day before administration of DSS to a day before dissection. In this connection, 1% hydroxypropylmethyl cellulose solution (HPMC) was used as a solvent, which was administered at a dose of 5 ml/kg to the solvent treated group."}, "[7]": {"settings": "20 mg/kg/day from 4th day, vs solvent treated group"}}, "note": "Where two headings read alike, the source gives them in different places."}
{"smiles": "COc1cc2[nH]c(=O)c3nn(C(OC(=O)OC(C)C)C(C)C)nc3c(=O)c2cc1OC", "note": "(stereo not shown) [Compound A, 2-(1-Isopropoxycarbonyloxy-2-methylpropyl)-7,8-dimethoxy-4(5H),10-dioxo-2H-1,2,3-triazolo[4,5-c][1]benzoazepine]", "values": [{"measurement": "Detection in plasma", "setting": "[1]; 15 minutes after oral 14C labeled Compound A 1 mg/kg, fasting rats", "result": "not detected"}, {"measurement": "Detection in bile", "setting": "[1]; bile collected for 8 hours after oral 14C labeled Compound A 1 mg/kg", "result": "not detected"}, {"measurement": "Metabolism of Compound A into Compound B on absorption", "setting": "[1]; oral 1 mg/kg, rats", "result": "nearly all of Compound A was metabolized into Compound B"}, {"measurement": "Detection in urine", "setting": "[1]; urine collected for 24 hours after oral 14C labeled Compound A 1 mg/kg", "result": "not detected"}, {"measurement": "Colonic ulceration score", "setting": "TNBS induced IBD model [2]", "result": "3.5 ± 0.5"}, {"measurement": "Absorbability upon oral administration relative to Compound B", "setting": "[3]", "result": "seven times as large as that of Compound B"}, {"measurement": "Volume of edema", "setting": "[4]; 1 mg/kg oral 15 min before carrageenin", "result": "0.87 ± 0.04", "unit": "mL"}, {"measurement": "Volume of edema", "setting": "[4]; 5 mg/kg oral 15 min before carrageenin", "result": "0.89 ± 0.04", "unit": "mL"}, {"measurement": "Volume of edema", "setting": "[4]; 25 mg/kg oral 15 min before carrageenin", "result": "0.67 ± 0.05", "unit": "mL"}, {"measurement": "Inhibitory effect on paw edema", "setting": "[4]; any doses (1 to 25 mg/kg oral)", "result": "no inhibitory effect"}, {"measurement": "NOAEL at 26 weeks", "setting": "in vivo", "result": "≥ 1000", "unit": "mg/kg/day"}, {"measurement": "Effect on the feces score on the day before dissection (FIG. 3)", "setting": "[5]; 2 mg/kg/day from 4th day", "result": "significant (P<0.005) ameliorating effect"}, {"measurement": "Effect on the increase of rectum weight (FIG. 2)", "setting": "[5]; 2 mg/kg/day from 4th day, vs solvent treated group", "result": "significant (P<0.005, P<0.05) ameliorating effect"}, {"measurement": "Effect on macro observation score (FIG. 4)", "setting": "[5]; 2 mg/kg, P=0.0509 category test, P=0.1161 segmentation test", "result": "inhibitory tendency"}, {"measurement": "Effect on the feces score on the day before dissection (FIG. 3)", "setting": "[5]; 20 mg/kg/day from 4th day", "result": "significant (P<0.005) ameliorating effect"}, {"measurement": "Effect on the increase of rectum weight (FIG. 2)", "setting": "[5]; [7]", "result": "significant (P<0.005, P<0.05) ameliorating effect"}, {"measurement": "Effect on the shortening of large intestine (FIG. 1)", "setting": "[5]; [7]", "result": "significant (P<0.01) ameliorating effect"}, {"measurement": "Effect on macro observation score (FIG. 4)", "setting": "[5]; 20 mg/kg/day, P=0.0006 category test, P=0.0003 segmentation test", "result": "significant ameliorating effect"}, {"measurement": "Side effects such as inhibition of weight gain", "setting": "[5]; rat, in vivo", "result": "not observed"}, {"measurement": "Colonic ulceration score", "setting": "TNBS induced IBD model [6]; 1 mg/kg × 2 oral, from 2 days after TNBS", "result": "3.5 ± 0.4"}, {"measurement": "Colonic ulceration score", "setting": "TNBS induced IBD model [6]; 25 mg/kg × 2 oral, from 2 days after TNBS", "result": "3.3 ± 0.3"}, {"measurement": "Weight gain", "setting": "TNBS induced IBD model [6]; Compound A treated group (2 to 50 mg/kg/day oral)", "result": "significant inhibition of weight gain was not observed"}, {"measurement": "Colonic ulceration score", "setting": "TNBS induced IBD model [6]; Table 6 (title: colonic wet weight of large intestine, 10 cm), 25 mg/kg × 2 oral", "result": "1.20 ± 0.04"}, {"measurement": "Side effects", "setting": "DSS induced IBD model", "result": "without any side effects"}, {"measurement": "inhibition at 10 mg/kg/day", "setting": "DSS induced IBD model; Table 2 (ulcer area reduction effect)", "result": 36.4, "unit": "%"}, {"measurement": "inhibition at 10 mg/kg/day", "setting": "DSS induced IBD model; Table 3 (feces score)", "result": 40.7, "unit": "%"}, {"measurement": "ulcer area", "setting": "DSS induced IBD model; Table 2 (title: ulcer area reduction effect), twice a day, mean ± SE", "result": "291.3 ± 37.0"}, {"measurement": "Feces score", "setting": "DSS induced IBD model; Table 3 (effectiveness on feces score), mean ± SE", "result": "2.00 ± 0.53"}]}
